Our source for the zones of inhibition, MIC and antifungal at values is EP1373298B1, “A COMPOSITION CONTAINING NOVEL COMPOUND CORNICULATONIN HAVING ANTIFUNGI PROPERTIES AND A PROCESS FOR PREPARING THE SAME” (COUNCIL OF SCIENTIFIC AND INDUSTRIAL RESEARCH, priority 2001, dated 2002).

Experiment [1] has as its system Aspergillus fresenii. Description: Disk diffusion assay, zone of inhibition. The settings on record: 250 µg. disk^-1, incubated 42-120 hrs at room temperature. It counts as cell-based. An excerpt: (§1) Agar: Czapek Malt Agar (Himedia laboratories Ltd.) was used for culturing Microsporum gypseum, Trichophyton mentagrophytes T. tonsurans, T. violaceum, Aspergillus fresenii and A. niger. Mycological Agar (Himedia Laboratories Ltd) was used for Cryptococcus neoformans and Candida sp.
(§2) Pathogenic fungal strains of yeast and filamentous fungi identified and gifted by Dr. Savio from Goa Medical College, Bambolim, were used for the test. Strains of Aspergillus were isolated from the infected wheat bread with sterile needle; fungal material was surface sterilized using 0.5 % sodium hypochlorite for 2-3 minutes, and then washed with small brush in sterile distilled water. Washed fungal material was transferred using needle into the sterile culture media and subcultured for purification by following standard methods (Collins and Taylor, 1967). Taxonomic identification was done by using various standard keys (Ainswort et al., 1973; Onion et al., 1981) and identification confirmed by Alka Pandey of Agarkar Research Institute, Pune.
(§3) Yeast strains (Candida sp. and Cryptococcus neoformans) were maintained by single colony transfer on mycological agar (Himedia Laboratories Ltd) at the refrigeration temperature (3-5°C). Filamentous fungi were maintained on Czapek Malt agar slants at refrigeration temperature (3-5°C), until needed for the assay.
(§4) Disk diffusion assay: The disk diffusion assay was used for screening of antifungal activity of the compound. The stock solution for the test was prepared by dissolving 5 mg of the compound of formula 1 in 200 µl dimethylsulphoxide (DMSO). From the stock solution 10 µl were spread on the paper disc so as to obtain the final concentration of 250 µg disk^-1. Control disk was applied reconstituted with only dimethylsulphoxide and were dried at 28-29°C. Completely dried disk was applied to innoculated plates. The plates were incubated at room temperature for the period between 42- 120 hrs. to obtain maximum growth in the culture media. The zones of inhibition around the disks were measured.

In experiment [2] the test system is Aspergillus niger. Description: Disk diffusion assay, zone of inhibition. The settings on record: 250 µg. disk^-1, incubated 42-120 hrs at room temperature. It counts as cell-based.
Source text: as §1, §2, §3, §4

Experiment [3] has as its system Candida sp. Description: Disk diffusion assay, zone of inhibition. The format is cell-based. The settings on record: 250 µg. disk^-1, incubated 42-120 hrs at room temperature.
Source text: as §1, §2, §3, §4

Experiment [4] relates to Cryptococcus neoformans. The experiment can be described thus: Disk diffusion assay, zone of inhibition. The format is cell-based. The settings on record: 250 µg. disk^-1, incubated 42-120 hrs at room temperature.
Source text: as §1, §2, §3, §4

Experiment [5] concerns Microsporum gypseum. The experiment can be described thus: Disk diffusion assay, zone of inhibition. It counts as cell-based. The settings on record: 250 µg. disk^-1, incubated 42-120 hrs at room temperature.
Source text: as §1, §2, §3, §4
Background: In agar diffusion tests the substance spreads into inoculated agar from a disc or well.

The test system of experiment [6] is T. tonsurans. Description: Disk diffusion assay, zone of inhibition. The settings on record: 250 µg. disk^-1, incubated 42-120 hrs at room temperature. The format is cell-based.
Source text: as §1, §2, §3, §4

The test system of experiment [7] is T. violaceum. Description: Disk diffusion assay, zone of inhibition. It counts as cell-based. The settings on record: 250 µg. disk^-1, incubated 42-120 hrs at room temperature.
Source text: as §1, §2, §3, §4

Experiment [8] has as its system Trichophyton mentagrophytes. Description: Disk diffusion assay, zone of inhibition. It counts as cell-based. The settings on record: 250 µg. disk^-1, incubated 42-120 hrs at room temperature.
Source text: as §1, §2, §3, §4

For experiment [9], the system named is Aspergillus fresenii. Description: Minimum inhibitory concentration (MIC), disk diffusion method. It counts as cell-based. The settings on record: disks of 50 to 3.12 µg, 42-120 hrs at room temperature.
Source text: as §1, §2, §3
(§5) Innocula were adjusted to 100 µl of Cryptococcus neoformans, Candida sp., Microsporum gypseum, Trichophyton tonsurans, T. violaceum and Trichophyton mentagrophytes and spread on the appropriate plates, excess moisture was allowed to absorb for 10 minutes before applying disks. Immediately prior to the assay, the testing compound of formula 1, object of the present invention, the reference compounds amphotericin B and nystatin, potency approx:750µ/mg and 4800USPunit/mg respectively, were reconstituted in triplicate in dimethylsulfoxide. […] From the stock solution 10 µl were spread on the paper disk so as to obtain final concentration of 50 µg disc^-1, 25µg disc^-1, 12.5 µg disc^-1, 6.25 µg disc^-1 and 3.12 µg disk^-1. Disks were dried at reduced pressure in the dessicator, at 28-29°C and applied to inoculated plates.
(§6) In testing, the compound of formula 1 was reconstituted in dimethylsulfoxide (DMSO) immediately prior to all assays. Dimethylsulfoxide (DMSO) alone had no detectable inhibitory effect on any of the tested microbes. Compound of formula 1 was tested against a diverse collection of yeast and filamentous fungi, some of which are resistant to the reference compound nystatin. Filamentous fungi were nystatin resistant.

The test system of experiment [10] is Candida sp. The description is as above. The settings on record: disks of 50 to 3.12 µg, 42-120 hrs at room temperature. The format is cell-based.
Source text: as §1, §2, §3, §5, §6

Experiment [11] has as its system Cryptococcus neoformans. Described as above. The format is cell-based. The settings on record: disks of 50 to 3.12 µg, 42-120 hrs at room temperature.
Source text: as §1, §2, §3, §5, §6

The test system of experiment [12] is Microsporum gypseum. Described as above. The format is cell-based. The settings on record: disks of 50 to 3.12 µg, 42-120 hrs at room temperature.
Source text: as §1, §2, §3, §5, §6

In experiment [13] the test system is T. tonsurans. The description is as above. The format is cell-based. The settings on record: disks of 50 to 3.12 µg, 42-120 hrs at room temperature.
Source text: as §1, §2, §3, §5, §6

Experiment [14] relates to T. violaceum. The description is as above. The format is cell-based. The settings on record: disks of 50 to 3.12 µg, 42-120 hrs at room temperature.
Source text: as §1, §2, §3, §5, §6

Experiment [15] concerns Trichophyton mentagrophytes. Described as above. The format is cell-based. The settings on record: disks of 50 to 3.12 µg, 42-120 hrs at room temperature.
Source text: as §1, §2, §3, §5, §6

For experiment [16], the system named is Aspergillus niger. Described as above. It counts as cell-based. The settings on record: disks of 50 to 3.12 µg, 42-120 hrs at room temperature.
Source text: as §1, §2, §3, §5, §6

The test system of experiment [17] is Cladosporium cucumerinum. The settings on record: TLC bioassay; cited from earlier work.

“3-O-α-rhamnopyranosyl-rhamnopyranosyl-glucopyranosyl-glucoronopyranosylgluco-pyrano side 16 α-hydroxy-13, 28-epoxy oleanane [Compound 1]”: the zones of inhibition in [1] is 10 mm; in [2], 4 mm; in experiment [3] it was 9 mm; in experiment [4], 9 mm; in [5] it was 14 mm; in [6] it was 14 mm. Also, the zones of inhibition is on record as 13 mm in experiment [7] and 12 mm in experiment [8]. Further, the MIC was 25 -50 µg. disk^-1 in experiment [9]; 6.25 -12.5 µg. disk^-1 in [10]; 6.25 -12.5 µg. disk^-1 in [11]; 12.5 - 25 µg. disk^-1 in experiment [12]; 12.5 - 25 µg. disk^-1 in experiment [13]; 25 - 50 µg. disk^-1 in experiment [14]. In addition, the MIC in experiment [15] was 25 - 50 µg. disk^-1.
In the case of `C[C@@H]1[C@H](O)[C@@H](C)/C=C/C=C/CC/C=C/C=C/C=C/C=C/C(O[C@H]2O[C@H](C)[C@@H](O)[C@H](N)[C@@H]2O)CC2O[C@](O)(CC(O)C(O)CCC(O)CC(O)CC(O)CC(=O)O[C@H]1C)CC(O)C2C(=O)O` (some centres unmarked) [Nystatin], the MIC in experiment [10] is on record as 6.25 -12.5 µg. disk^-1; in [11], 6.25 - 12.5 µg. disk^-1.
Consider `C[C@@H]1[C@H](O)[C@@H](C)/C=C/C=C/C=C/C=C/C=C/C=C/C=C/[C@H](O[C@@H]2O[C@H](C)[C@@H](O)[C@H](N)[C@@H]2O)C[C@@H]2O[C@](O)(C[C@@H](O)C[C@@H](O)[C@H](O)CC[C@@H](O)C[C@@H](O)CC(=O)O[C@H]1C)C[C@H](O)[C@H]2C(=O)O` [Amphotericin B, reference compound], for which the MIC in experiment [9] is 12.5 -25 µg. disk^-1; in [16] it was 12.5 -25 µg. disk^-1; in [10], 3.12 - 6.25 µg. disk^-1; in experiment [11], 3.12 - 6.25 µg. disk^-1; in [12], 6.25 -12.5 µg. disk^-1; in experiment [13], 6.25 - 12.5 µg. disk^-1. Also, the results for the MIC in experiment [14] and in experiment [15] were 6.25 -12.5 µg. disk^-1 and 6.25 - 12.5 µg. disk^-1, respectively.
For the compound Sakurasaponin, in experiment [17], the antifungal at is given as 1 µg.
